# Laboratory results from patent publication US8597700B2, “Method of treating osteoporosis with extract of Dioscorea sp” (National Yang-Ming University, priority 2002, dated 2013).
# Marks after values point to notes of the source that are not given here.
# What was measured:
# [1] = system: bone marrow cells of C3H mice; experiment: Proliferation (MTT) and morphological changes of bone marrow cells in the presence of EGF; assay type: cell-based, C3H/HeN mice
# Procedure: (§1) Under sterile conditions, SPF grade C3H/HeN mice were sacrificed and their femoral bones were injected with a liquid culture of DMEM/F12 to flush out the bone marrow cells. The cells were filtered through sterile No. 53 nylon mesh. The single cell suspension so obtained was mixed with DMEM/F12 culture medium containing N2 to adjust to the proper concentration.
# 1×10^4 cells/well bone marrow cells of mice obtained in preparatory step 3 were seeded in a 96-well microplate containing DMEM/F12 culture medium with N2 and 10 ng/ml EGF and incubated in a 5% CO2 incubator at 37° C for 24 hrs. The extract and DHEA were added into different wells respectively. Wells containing pure culture medium into which no methanol extract and DHEA were added, and which were subjected to the same incubation procedure, were used as […]. In addition, for use as positive control, the same procedure as that for control was repeated except that 50 ng/ml EGF was used. The proliferation responses were measured by a MTT assay. In accordance with the MTT assay, each of the wells was added with 1 mg/ml MTT solution and, after 4 hours of reaction, MTT lysis buffer (20% SDS-50% DMF) was added thereinto in an amount of 150 μl/well. The resultant mixture was allowed to be reacted for 16 hours. The absorbance was measured at O.D. 570 nm.
# osteoprogenitor cells = experiment: Proliferative response of osteoprogenitor cells of mice (MTT assay); assay type: cell-based, C3H/HeN mice; details: 0.01 and 0.1 μg/ml, 72 hours
# Procedure: Under sterile conditions, femoral bones of the SPF grade of C3H/HeN mouse were obtained and injected with DMEM/F12. The bone marrow cells were flushed out and filtered through No. 53 sterile nylon mesh. The single cell suspension obtained was mixed with DMEM/F12 culture medium containing 15% FCS to adjust the concentration of the cells.
# The cells were cultured in DMEM/F12 medium containing 15% FCS, 50 μg/ml ascorbic acid, 10 mM sodium β glycerophosphate and 10 nM dexamethasone in a T-flask for 6 days. The culture medium was renewed every 3 days. The cell concentration was 10^6 cells/cm^2. On the 6th day, the suspended cells and culture medium were drawn out. The adhering cell layer was washed with 1×PBS that had been warmed to room temperature, and then treated with 0.01% EDTA at 37° C. for 5 to 10 minutes. […]
# The cells obtained in preparatory step 4 were dispersed using a 22 G gauge needle and suspended in DMEM/F12 medium containing 15% FCS, 50 μg/ml ascorbic acid, 10 mM sodium β-glycerophosphate and 10 nM dexamethazone to form a concentration of 4.5×10^4 cells/ml. […] 1 mg/ml MTT solution was added in each well and reacted for 4 hours MTT lysis buffer (20% SDS-50% DMF) was added in each well in the amount of 150 μl/well and reacted for 16 hours, and the absorbance was measured at O.D. 570 nm for the resultant cell suspension in each well.
# [2] = system: bone marrow cells of mice; experiment: Proliferation (MTT) and morphologic change of bone marrow cells in the presence of GM-CSF; assay type: cell-based
# Procedure: as §1
# 1×10^4 cells/well bone marrow cells of mice obtained in preparatory step 3 were seeded in each well of the 96-well microplate, cultured in DMEM/F 12 culture medium containing N2, and 4 ng/ml mGM-CSF. Methanol extracts of Dioscorea sp. with different concentrations were respectively added into the resultant cultured cells in the different wells. The resultant methanol extract containing cultured cells in different wells were then incubated in a 5% CO2 incubator at 37° C. for 14 days. The cells cultured in DMEM/F12 medium containing N2 and 20 ng/ml mGM-CSF is used as positive control. A MTT assay was performed. In this respect, 1 mg/ml MTT solution was added in each well so as to react with the cultured cells therein for 4 hours. MTT lysis buffer (20% SDS-50% DMF) was added in a n amount of 150 μl/well. The resultant mixture was allowed to react for 16 hours. The absorbance was measured at O.D. 570 nm.
smiles,measurement,setting,value
"C[C@]12CC[C@H](O)CC1=CC[C@@H]1[C@@H]2CC[C@]2(C)C(=O)CC[C@@H]12 [DHEA, Dehydroepiandrosterone]",Proliferation Index,[1]; 0.0001 μg/ml,0.99
same,Proliferation Index,[1]; 0.001 μg/ml,0.64
same,Proliferation Index,[1]; 0.01 μg/ml,0.65
same,Proliferation Index,[1]; 0.1 μg/ml,0.67
same,Proliferation Index,[1]; 1 μg/ml,0.70
same,proliferation of the osteoprogenitor cells,osteoprogenitor cells,no effect
same,Proliferation Index,[2]; 0.0001 μg/ml,0.99
same,Proliferation Index,[2]; 0.001 μg/ml,1.15
same,Proliferation Index,[2]; 0.01 μg/ml,1.04
same,Proliferation Index,[2]; 0.1 μg/ml,1.13
same,Proliferation Index,[2]; 1 μg/ml,1.11
same,Proliferation Index,[2]; 10 μg/ml,1.19*
same,differentiation of bone marrow cells,[2]; 20-week old adult mouse bone marrow cells,enhancing cell differentiation
